Measurements reported in patent US20240208907A1, “GPR52 MODULATORS AND METHODS OF USE” (Neurocrine Biosciences, Inc., priority 2021, published 2024).

Molecular target: T1, recombinant human GPR52 (Homo sapiens, UniProt Q9Y2T5)
T1 construct: expressed in transfected cells
Assay: GPR52 activity: TR-FRET cAMP assay (LANCE Ultra cAMP Kit)
Type: cell-based
Conditions: Flp-In-CHO cells stably expressing recombinant human GPR52; cAMP production, normalized to positive control
Experimental: TR-FRET cAMP assays were performed using commercially available assay kits (LANCE™ Ultra cAMP Kit). Controls and compounds were solubilized in DMSO using ½ log dilution to generate duplicate 10-point dose response curves in 384-well polypropylene compound plates. Sixty nanoliters of the diluted compounds were transferred into 384-well NBS assay plates and further diluted to 1× with the addition of 2000 cells per well. Flp-In™-CHO cells that stably express recombinant human GPR52.
Cells were harvested with cell stripper and resuspended in Stimulation Buffer (5 mM HEPES, 0.1% bovine serum albumin (BSA), 0.5 mM IBMX, pH 7.4). After thirty minutes incubation at room temperature, detection reagents were added to each well. Plates were then incubated for 30 minutes at room temperature. The LANCE™ Ultra cAMP assay uses time-resolved fluorescence resonance energy transfer (TR-FRET) to detect cAMP production; this signal was quantified using a Pherastar multi-mode plate reader.
Dose-response curves were generated from the fluorescence counts normalized to the positive control. E EC50 values were obtained using a nonlinear regression curve-fitting program.

T1 sequence (Q9Y2T5 whole entry): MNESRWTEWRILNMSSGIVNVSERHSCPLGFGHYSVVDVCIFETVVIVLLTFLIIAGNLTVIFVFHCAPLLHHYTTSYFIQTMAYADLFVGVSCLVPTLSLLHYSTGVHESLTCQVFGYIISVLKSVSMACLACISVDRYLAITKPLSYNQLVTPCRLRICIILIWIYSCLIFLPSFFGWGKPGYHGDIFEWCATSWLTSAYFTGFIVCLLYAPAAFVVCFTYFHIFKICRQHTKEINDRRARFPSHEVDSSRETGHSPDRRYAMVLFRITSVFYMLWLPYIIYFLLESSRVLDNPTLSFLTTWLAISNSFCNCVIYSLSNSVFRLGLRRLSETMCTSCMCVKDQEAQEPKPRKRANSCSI

EC50 [nM] | SMILES
101 to 1000 | N#Cc1cc(Cc2ccnc(-c3cccc(CC(N)=O)c3)c2)cc(F)c1F [Compound 33, 2-(3-{4-[(3-cyano-4,5-difluorophenyl)methyl]pyridin-2-yl}phenyl)acetamide]
101 to 1000 | N#Cc1cc(Cc2ccnc(-c3cccc(C(N)=O)c3)c2)cc(F)c1F [Compound 38, 3-{4-[(3-cyano-4,5-difluorophenyl)methyl]pyridin-2-yl}benzamide]
